Results published in US20190202877A1, “DERMASEPTIN-TYPE AND PISCIDIN-TYPE ANTIMICROBIAL PEPTIDES” (THE REGENTS OF THE UNIVERSITY OF COLORADO, a body corporate, priority 2014, published 2019).
≈ marks a conversion by molar mass, not a printed value. Like-named read-outs stand apart in the source and are kept apart here.

Legend:
[1] = system: methicillin resistant Staph. aureus (MRSA); assay type: cell-based, Staphylococcus aureus; conditions: for MIC: MH medium, 37° C., 24 h; for MIC GM, MRSA: geometric mean of MIC from 8 different isolates of MRSA
Description: (§1) MICs were determined by a standard microtiter dilution method in Mueller Hinton (MH) medium. Briefly, cells were grown overnight at 37° C. in MH broth and were diluted in the same medium. Serial dilutions of the peptides were added to the microtiter plates in a volume of 50 μl, followed by the addition of 50 μl of bacteria to give a final inoculum of 5×10^5 colony-forming units (CFU)/mL. The plates were incubated at 37° C. for 24 h, and the MICs were determined as the lowest peptide concentration that inhibited growth.
(§2) Various peptides of the invention were tested for antimicrobial activity as described in Example 1. The antimicrobial activity of these peptides was similarly tested against Gram-positive organisms, including Staphylococcus aureus.

[2] = system: methicillin sensitive Staph. aureus (MSSA); assay type: cell-based, Staphylococcus aureus; conditions: for MIC: MH medium, 37° C., 24 h; for MIC GM, MSSA: geometric mean of MIC from 12 different isolates of MSSA
Description: as §1, §2

human red blood cells = conditions: for Fold improvement in HC50: compared to D-Piscidin 1 or D-Dermaseptin S4, 18 hours
Description: Peptide samples (concentrations determined by amino acid analysis) were added to 1% human erythrocytes in phosphate-buffered saline (100 mM NaCl, 80 mM Na2HPO4, 20 mM NaH2PO4, pH 7.4) and the reaction mixtures were incubated at 37° C. for 18 h in microtiter plates. Two-fold serial dilutions of the peptide samples were carried out. This determination was made by withdrawing aliquots from the hemolysis assays and removing unlysed erythrocytes by centrifugation (800×g). Hemoglobin release was determined spectrophotometrically at 570 nm. The control for 100% hemolysis was a sample of erythrocytes treated with water or 0.1% Triton-X 100. The control for no release of hemoglobin was a sample of 1% erythrocytes without any peptide added. […] The hemolytic activity was determined as the peptide concentration that caused 50% hemolysis of erythrocytes after 18 h (HC50). HC50 as determined from a plot of percent lysis versus peptide concentration (μM). The inventors also determined the hemolytic activity after 1 hour at 37° C.

Row | Compound | MIC ([1]; MRSA strain M21742 (nose)) [µM] | MIC ([1]; MRSA strain M21756 (nose)) [µM] | MIC ([1]; MRSA strain M22111 (ear)) [µM] | MIC ([1]; MRSA strain M22130) [µM] | MIC ([1]; MRSA strain M22224 (leg)) [µM] | MIC ([1]; MRSA strain M22354) [µM] | MIC ([1]; MRSA strain M22360 (labia)) [µM] | MIC ([1]; MRSA strain M22424 (arm)) [µM] | MIC GM, MRSA [1] [µM] | MIC ([2]; MSSA strain BL7429) [µM] | MIC ([2]; MSSA strain M21913) [µM] | MIC ([2]; MSSA strain M21935) [µM] | MIC ([2]; MSSA strain M21991) [µM] | MIC ([2]; MSSA strain M22075) [µM] | MIC ([2]; MSSA strain M22097) [µM] | MIC ([2]; MSSA strain M22111) [µM] | MIC ([2]; MSSA strain M22274) [µM] | MIC ([2]; MSSA strain M22287) [µM] | MIC ([2]; MSSA strain M22300) [µM] | Fold improvement in HC50 (human red blood cells) [fold] | other results
1 | CSCC[C@@H](NC(=O)[C@@H](Cc1c[nH]c2ccccc12)NC(=O)[C@@H](CC(C)C)NC(=O)[C@@H](C)N)C(=O)N[C@@H](C(=O)N[C@H](CC(C)C)C(=O)N[C@H](CC(C)C)C(=O)N[C@H](CCCCN)C(=O)N[C@H](CCCCN)C(=O)N[C@@H](C(=O)N[C@H](CC(C)C)C(=O)N[C@H](CCCCN)C(=O)N[C@H](C)C(=O)N[C@H](C)C(=O)N[C@H](C)C(=O)N[C@H](CCCCN)C(=O)N[C@H](C)C(=O)N[C@H](CC(C)C)C(=O)N[C@H](CC(N)=O)C(=O)N[C@H](C)C(=O)N[C@@H](C(=O)N[C@H](CC(C)C)C(=O)N[C@@H](C(=O)NCC(=O)N[C@H](C)C(=O)N[C@H](CC(N)=O)C(=O)N[C@H](C)C(N)=O)C(C)C)C(C)C)C(C)C)[C@H](C)O [D-Dermaseptin S4, reference compound] | 5.6 (≈ 15.6 µg/mL) | 2.8 (≈ 7.78 µg/mL) | 5.6 (≈ 15.6 µg/mL) | 5.6 (≈ 15.6 µg/mL) | 5.6 (≈ 15.6 µg/mL) | 5.6 (≈ 15.6 µg/mL) | 5.6 (≈ 15.6 µg/mL) | 11.3 (≈ 31.4 µg/mL) | 5.6 (≈ 15.6 µg/mL) | 2.8 (≈ 7.78 µg/mL) | 5.6 (≈ 15.6 µg/mL) | 5.6 (≈ 15.6 µg/mL) | 5.6 (≈ 15.6 µg/mL) | 2.8 (≈ 7.78 µg/mL) | 5.6 (≈ 15.6 µg/mL) | 5.6 (≈ 15.6 µg/mL) | 11.3 (≈ 31.4 µg/mL) | 5.6 (≈ 15.6 µg/mL) | 5.6 (≈ 15.6 µg/mL) | 1.0 | MIC ([2]; MSSA strain M22312): 11.3 µM (≈ 31.4 µg/mL); MIC ([2]; MSSA strain M22315): 11.3 µM (≈ 31.4 µg/mL); MIC GM, MSSA [2]: 6.0 µM (≈ 16.7 µg/mL)
2 | CC[C@@H](C)[C@@H](NC(=O)[C@H]1CCCN1C(=O)[C@@H](CCCNC(=N)N)NC(=O)[C@@H](Cc1ccccc1)NC(=O)[C@H](NC(=O)[C@@H](Cc1c[nH]cn1)NC(=O)[C@@H](Cc1c[nH]cn1)NC(=O)[C@@H](Cc1ccccc1)NC(=O)[C@H](N)Cc1ccccc1)[C@H](C)CC)C(=O)N[C@@H](C(=O)N[C@H](Cc1c[nH]cn1)C(=O)N[C@@H](C(=O)NCC(=O)N[C@H](CCCCN)C(=O)N[C@@H](C(=O)N[C@@H](C(=O)N[C@H](Cc1c[nH]cn1)C(=O)N[C@H](CCCNC(=N)N)C(=O)N[C@H](CC(C)C)C(=O)N[C@@H](C(=O)N[C@@H](C(=O)NCC(N)=O)[C@H](C)O)C(C)C)[C@H](C)CC)[C@H](C)O)C(C)C)C(C)C [D-Piscidin 1 G8P] |  |  |  |  |  |  |  |  |  |  |  |  |  |  |  |  |  |  |  |  | fold increase in hemolytic activity from 1 to 18 hours (human red blood cells; HC50 1 hour vs 18 hours at 37° C.): 7 fold
3 | CC[C@@H](C)[C@@H](NC(=O)CNC(=O)[C@@H](CCCNC(=N)N)NC(=O)[C@@H](Cc1ccccc1)NC(=O)[C@H](NC(=O)[C@@H](Cc1c[nH]cn1)NC(=O)[C@@H](Cc1c[nH]cn1)NC(=O)[C@@H](Cc1ccccc1)NC(=O)[C@H](N)Cc1ccccc1)[C@H](C)CC)C(=O)N[C@@H](C(=O)N[C@H](Cc1c[nH]cn1)C(=O)N[C@@H](C(=O)N[C@H](CCCCN)C(=O)N[C@H](CCCCN)C(=O)N[C@@H](C(=O)N[C@@H](C(=O)N[C@H](Cc1c[nH]cn1)C(=O)N[C@H](CCCNC(=N)N)C(=O)N[C@H](CC(C)C)C(=O)N[C@@H](C(=O)N[C@@H](C(=O)NCC(N)=O)[C@H](C)O)C(C)C)[C@H](C)CC)[C@H](C)O)C(C)C)C(C)C [D-Piscidin 1 G13K] |  |  |  |  |  |  |  |  |  |  |  |  |  |  |  |  |  |  |  | 3.9 | 
4 | CC[C@@H](C)[C@@H](NC(=O)[C@@H](Cc1c[nH]cn1)NC(=O)[C@@H](Cc1c[nH]cn1)NC(=O)[C@@H](Cc1ccccc1)NC(=O)[C@H](N)Cc1ccccc1)C(=O)N[C@H](Cc1ccccc1)C(=O)N[C@H](CCCNC(=N)N)C(=O)NCC(=O)N[C@H](CCCCN)C(=O)N[C@@H](C(=O)N[C@H](Cc1c[nH]cn1)C(=O)N[C@@H](C(=O)NCC(=O)N[C@H](CCCCN)C(=O)N[C@@H](C(=O)N[C@@H](C(=O)N[C@H](Cc1c[nH]cn1)C(=O)N[C@H](CCCNC(=N)N)C(=O)N[C@H](CC(C)C)C(=O)N[C@@H](C(=O)N[C@@H](C(=O)NCC(N)=O)[C@H](C)O)C(C)C)[C@H](C)CC)[C@H](C)O)C(C)C)C(C)C [D-Piscidin 1 I9K] | 96.7 (≈ 250 µg/mL) | 387 (≈ 1000 µg/mL) | 96.7 (≈ 250 µg/mL) | 12.1 (≈ 31.3 µg/mL) | 96.7 (≈ 250 µg/mL) | 773 (≈ 2000 µg/mL) | 3.0 (≈ 7.76 µg/mL) | 773 (≈ 2000 µg/mL) | 96.7 (≈ 250 µg/mL) | 193 (≈ 499 µg/mL) | 193 (≈ 499 µg/mL) | 387 (≈ 1000 µg/mL) | 193 (≈ 499 µg/mL) | 387 (≈ 1000 µg/mL) | 193 (≈ 499 µg/mL) | 3.0 (≈ 7.76 µg/mL) | 773 (≈ 2000 µg/mL) | 773 (≈ 2000 µg/mL) | 773 (≈ 2000 µg/mL) | 54 | MIC ([2]; MSSA strain M22312): 773 µM (≈ 2000 µg/mL); MIC ([2]; MSSA strain M22315): 773 µM (≈ 2000 µg/mL); MIC GM, MSSA [2]: 273 µM (≈ 706 µg/mL); % hemolysis (human red blood cells; 1000 μg/mL (387 μM) for 1 hour): 32%; activity against human red blood cells (human red blood cells; 18 hours incubation): inactive
5 | CC[C@@H](C)[C@@H](NC(=O)CNC(=O)[C@@H](CCCNC(=N)N)NC(=O)[C@@H](Cc1ccccc1)NC(=O)[C@H](NC(=O)[C@@H](Cc1c[nH]cn1)NC(=O)[C@@H](Cc1c[nH]cn1)NC(=O)[C@@H](Cc1ccccc1)NC(=O)[C@H](N)Cc1ccccc1)[C@H](C)CC)C(=O)N[C@@H](C(=O)N[C@H](Cc1c[nH]cn1)C(=O)N[C@H](CCCCN)C(=O)NCC(=O)N[C@H](CCCCN)C(=O)N[C@@H](C(=O)N[C@@H](C(=O)N[C@H](Cc1c[nH]cn1)C(=O)N[C@H](CCCNC(=N)N)C(=O)N[C@H](CC(C)C)C(=O)N[C@@H](C(=O)N[C@@H](C(=O)NCC(N)=O)[C@H](C)O)C(C)C)[C@H](C)CC)[C@H](C)O)C(C)C [D-Piscidin 1 V12K] | 385 (≈ 1000 µg/mL) | 385 (≈ 1000 µg/mL) | 96.1 (≈ 250 µg/mL) | 96.1 (≈ 250 µg/mL) | 96.1 (≈ 250 µg/mL) | 96.1 (≈ 250 µg/mL) | 3.0 (≈ 7.8 µg/mL) | 769 (≈ 2000 µg/mL) | 114 (≈ 296 µg/mL) | 385 (≈ 1000 µg/mL) | 769 (≈ 2000 µg/mL) | 192 (≈ 499 µg/mL) | 769 (≈ 2000 µg/mL) | 385 (≈ 1000 µg/mL) | 385 (≈ 1000 µg/mL) | 6.0 (≈ 15.6 µg/mL) | 769 (≈ 2000 µg/mL) | 192 (≈ 499 µg/mL) | 24.0 (≈ 62.4 µg/mL) | 19 | MIC ([2]; MSSA strain M22312): 769 µM (≈ 2000 µg/mL); MIC ([2]; MSSA strain M22315): 192 µM (≈ 499 µg/mL); MIC GM, MSSA [2]: 229 µM (≈ 595 µg/mL)
6 | CC[C@@H](C)[C@@H](NC(=O)CNC(=O)[C@@H](CCCNC(=N)N)NC(=O)[C@@H](Cc1ccccc1)NC(=O)[C@H](NC(=O)[C@@H](Cc1c[nH]cn1)NC(=O)[C@@H](Cc1c[nH]cn1)NC(=O)[C@@H](Cc1ccccc1)NC(=O)[C@H](N)Cc1ccccc1)[C@H](C)CC)C(=O)N[C@@H](C(=O)N[C@H](Cc1c[nH]cn1)C(=O)N[C@@H](C(=O)NCC(=O)N[C@H](CCCCN)C(=O)N[C@@H](C(=O)N[C@@H](C(=O)N[C@H](Cc1c[nH]cn1)C(=O)N[C@H](CCCNC(=N)N)C(=O)N[C@H](CC(C)C)C(=O)N[C@@H](C(=O)N[C@@H](C(=O)NCC(N)=O)[C@H](C)O)C(C)C)[C@H](C)CC)[C@H](C)O)C(C)C)C(C)C [D-Piscidin 1, reference compound] | 3.0 (≈ 7.71 µg/mL) | 3.0 (≈ 7.71 µg/mL) | 3.0 (≈ 7.71 µg/mL) | 3.0 (≈ 7.71 µg/mL) | 3.0 (≈ 7.71 µg/mL) | 3.0 (≈ 7.71 µg/mL) | 1.5 (≈ 3.86 µg/mL) | 3.0 (≈ 7.71 µg/mL) | 2.8 (≈ 7.2 µg/mL) | 3.0 (≈ 7.71 µg/mL) | 3.0 (≈ 7.71 µg/mL) | 3.0 (≈ 7.71 µg/mL) | 6.1 (≈ 15.7 µg/mL) | 3.0 (≈ 7.71 µg/mL) | 6.1 (≈ 15.7 µg/mL) | 1.5 (≈ 3.86 µg/mL) | 3.0 (≈ 7.71 µg/mL) | 3.0 (≈ 7.71 µg/mL) | 3.0 (≈ 7.71 µg/mL) | 1.0 | MIC ([2]; MSSA strain M22312): 6.1 µM (≈ 15.7 µg/mL); MIC ([2]; MSSA strain M22315): 3.0 µM (≈ 7.71 µg/mL); MIC GM, MSSA [2]: 3.4 µM (≈ 8.74 µg/mL)
